Experimental data published in patent publication US9296778B2, “3′,5′-cyclic phosphate prodrugs for HCV infection” (Idenix Pharmaceuticals, Inc., priority 2012, dated 2016).
pEC50: −log10 of the molar value.

Tests used:
HCV genotype 1b replicon = experiment: HCV Replicon Assay; type: cell-based; conditions: Hepatitis C virus, 72 h, Zluc cells (Huh-7-derived, HCV genotype 1b replicon, luciferase reporter), 72 hours; read-out: HCV Replicon EC50
Procedure, shortened: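 Zluc Huh-7 cells with HCV genotype 1b replicon and luciferase reporter treated with 5-fold dilutions (100 μM to 0.0000512 μM final) in duplicate, or at 1 and 10 μM. Luminescence read with ONE-glo; EC50 from dose-response fits, or % inhibition at the fixed concentrations.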

[1] = Stability in simulated gastric fluid; type: in vitro ADME; conditions: 100 μM, 2 hours at 37° C., percent of the peak area at time zero
Experimental: (§1) Simulated gastric and intestinal fluids containing pepsin and pancreatin respectively were prepared according to the U.S. Pharmacopoeia USP291 procedure (www.pharmacopeia.cn/v29240/usp29nf24s0_ris1s126.html). Compounds (final concentration 100 μM) were incubated in duplicate in the appropriate fluid for 2 hours at 37° C. The samples were quenched with 200 μl cold acetonitrile, vortexed for 30 seconds and then centrifuged at 16,100 g for 10 min. The supernatants were analyzed by HPLC on a C-18 column with UV detection at 252 nm. The time 0 samples were prepared by adding SGF or SIF fluid to the quenching solvent followed by the test compound. Stability of the compounds was determined by peak area of the test compounds after incubation and calculated as percent of the peak area observed at time zero.

[2] = Stability in simulated intestinal fluid; type: in vitro ADME; conditions: 100 μM, 2 hours at 37° C., percent of the peak area at time zero
Experimental: as §1

[3] = Stability in fresh human whole blood; type: in vitro ADME; conditions: 0.5 μM, percent unchanged test compound
Experimental: (§2) Stability of compounds were determined in fresh human whole blood with K2EDTA as the anticoagulant (stored refrigerated at 2-8° C. and used within 7 days of receipt). The experiment was conducted with three replicates for each time point. Whole blood, pre-incubated at 37° C. for 10-15 minutes, was fortified with a solution of test compound for a final concentration of 0.5 μM and mixed for 30 sec. At intervals (0, 0.5, 1 and 2 hr), three 50 μL aliquots were combined with 200 μL (each) of an ice-cold solution of the internal standard (carbutamide 500 ng/mL in acetonitrile). The samples were vortexed for 30 sec and then centrifuged at 16,100 g for 5 min. The supernatant was analyzed by LC-MS/MS. The MS peak area ratio of the test compounds versus the internal standard was calculated and percent unchanged test compound was calculated for each time point using this ratio.

Stability in mouse blood = type: in vitro ADME; conditions: on ice, percent unchanged test compound
Experimental: as §2
The stability in mouse blood was determined on ice at 0, 0.5 and 1 hr as herein.

fresh human hepatocytes = experiment: Release of active metabolite in fresh human hepatocytes; type: in vitro ADME; conditions: 10 μM compound; for FHH TP Cmax: fresh human hepatocytes; for FHH TP AUC: fresh human hepatocytes, 6, 24 and 48 hours
Procedure, shortened: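 Overnight-acclimatized hepatocytes (0.8 million cells/well human, 0.5 million mouse) incubated at 37 °C with 10 μM test compound (0.1% DMSO). Sampled at 6, 24, 48 h (human) or 1, 4, 8, 12, 24 h (mouse); cells washed, extracted in cold 70% methanol, intracellular content quantified by LC-MS/MS with internal standard.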

mouse hepatocytes = experiment: Release of active metabolite in mouse hepatocytes; type: in vitro ADME; conditions: 10 μM compound
Experimental: Plates of fresh human and mouse hepatocytes were obtained on ice. The medium was removed and replaced with hepatocyte culture medium (William's E supplemented with penicillin-streptomycin, 1% L-glutamine, 1% insulin-transferrin-selenium and 0.1 μM Dexamethasone (Invitrogen) or with Invitro GRO HI medium complemented with Torpedo antibiotics (Celsis)). Cells were left overnight in an incubator at 37° C. to acclimatize to culture and the medium.
Hepatocyte incubations were conducted at a final volume of 0.5 mL hepatocyte culture medium/well (0.8 million cells/well for human and 0.5 million cells/well for mouse; 12 well plate no overlay, collagen coat). Culture medium from overnight incubation of cells was removed and replaced with fresh medium, pre-warmed to 37° C., containing 10 μM of test compound from a stock solution in DMSO (final DMSO concentration was 0.1%). At each specific time point, incubation medium was removed and cell monolayers were carefully washed two times with ice-cold PBS. Following the last wash, all PBS was carefully removed and 1.0 mL of extraction solution (ice-cold 70% methanol/30% water) added. Cells were scraped off and suspended in the extraction solution, transferred to 2 mL polypropylene microfuge tubes and intracellular contents extracted overnight at −20° C.
After the overnight treatment the cellular extracts were prepared by centrifugation at 16,000×g for 10 min to remove cellular debris. The remaining sample was then dried using a refrigerated centrivap concentrator. Dry extracts were reconstituted in 1000 μL of HPLC-grade water and centrifuged at 16,000×g for 10 min. Aliquots (100 μL each) of the supernatant were transferred into a 96 well plate and internal standard (4 ng/mL final concentration) was added as the internal standard (IS) for LC-MS/MS analysis.
The incubation time points were 6, 24 and 48 hours for human hepatocytes and 1, 4, 8, 12 and 24 hours for mouse hepatocytes.

[4] = Plasma pharmacokinetics following a single oral dose in CD-1 mice; type: in vivo; conditions: single oral dose 25 mg/kg in PEG 200, CD-1 male mice; given at 1 μmol/kg; 25 mg/kg
Experimental: (§3) A single oral dose of test compound at 25 mg/kg in PEG 200 (dose volume 5 mL/kg) was administered to nine CD-1 male mice. Five untreated animals were used for the collection of control plasma and liver. Terminal plasma and liver samples were collected from three animals per time point at 4, 12 and 24 hours post dose. Liver specimens were collected from all animals immediately after the incision. Freezing forceps stored in liquid nitrogen were used to freeze the liver before excision.
Plasma samples were analyzed for 2′-methylguanosine (2′-MeG) by LC-MS/MS. The internal standard (IS) was 2′-MeG-D3. For protein precipitation and extraction, each plasma sample (50 μL) was treated with 500 μL of 0.2% formic acid in acetonitrile and 20 μL of the internal standard working solution. After vortexing and centrifugation, 500 μL of the sample extracts were transferred to a new plate, dried under N2 at ˜28° C. and reconstituted with 75 μL of 0.2% FA in water. The extracts were chromatographed on an Aquasil C18 column using a gradient system of 0.2% formic acid in water and acetonitrile. The analytes were detected and quantified by tandem mass spectrometry in positive ion mode on an MDS Sciex API5000 equipped with a Turbo Ionspray® interface. The calibration range was 0.500 (LLOQ) to 200 ng/mL in mouse plasma.

[5] = Liver pharmacokinetics following a single oral dose in CD-1 mice; type: in vivo; conditions: single oral dose 25 mg/kg in PEG 200, CD-1 male mice; given at 1 μmol/kg; 25 mg/kg
Experimental: as §3
Liver samples were analyzed for the active species 2′-methylguanosine triphosphate (2′-MeGTP) by LC-MS/MS. 2′-MeGTP levels were assayed by homogenizing (on ice) a known weight of mouse liver with 4× volume of 0.95 M trichloroacetic acid (TCA). Internal standard solution was added to the homogenate followed by neutralization with 20% ammonium hydroxide solution and addition of 500 μL 1% formic acid. The tissue samples were extracted by weak anion exchange solid phase extraction (SPE). Post extraction, the eluates were evaporated under nitrogen, followed by reconstitution before injection onto the LC-MS/MS system. The samples were chromatographed on a Luna NH2 column using a gradient system of ammonium acetate (1 mM to 20 mM and pH 8.0 to pH 10.0) in water and acetonitrile (70:30). The analyte was detected and quantified by tandem mass spectrometry in positive ion mode on an API4000 equipped with a Turbo Ionspray® interface. The calibration range was 10 to 10000 pmol/mL in mouse liver homogenate (50 to 50000 pmol/g of mouse liver).

in vitro = conditions: human, HCV Replicon CC50, Zluc cells, CellTiter-Blue
Huh-7 cells = experiment: Release of active metabolite in Huh-7 cells; type: in vitro ADME, human; conditions: 10 μM compound
Experimental: Huh-7 cells were plated in 1 mL culture medium (DMEM, containing glucose, L-glutamine and sodium pyruvate, 10% FBS, 100 IU/mL penicillin, 100 μg/mL streptomycin, 2 mM GlutaMAX, 1% MEM non-essential amino acids) at the concentration 0.8, 0.4 and 0.2 million cells per well on 6 well plates for 24, 48 and 72 hr treatment, respectively. Plated cells were incubated overnight at 37° C. in an incubator.
The following morning compounds was diluted to 20 μM from a stock solution in DMSO in fresh culture medium pre-warmed to 37° C. and 1 mL of the solution/well was added to cells. A final medium volume per well was 2.0 mL, Compound concentration in well was 10 μM and final DMSO concentration was 0.1%.
After 24, 48 or 72 hr, the medium was carefully removed and cell monolayers were washed twice with 2 mL ice-cold PBS per well. Following the last wash, all PBS was carefully removed and 1.0 mL of extraction solution (ice-cold 70% methanol) added. The plate was tightly covered with Parafilm, plastic plate cover and Parafilm again and an intracellular content was extracted at −20° C. for 24 hr.
After 24 hr extracts were transferred into polypropylene microfuge tubes and dried on a refrigerated centrivap concentrator. Dry residues were reconstituted in 250 μL of HPLC-grade water and centrifuged at 16,000×g for 10 min. Aliquots (100 μL each) of the supernatants were transferred into a 96 well plate and internal standard (4 ng/mL final concentration) was added as the internal standard (IS) for LC-MS/MS analysis.

Row | SMILES | pEC50 (HCV genotype 1b replicon) | Stability SGF [1] | Stability SIF [2] | Stability WB_Human (37° C.; 2 hr) [3] | Stability WB_Mouse (ice; 1 hr) (Stability in mouse blood) | FHH TP Cmax (fresh human hepatocytes) | FHH TP AUC (fresh human hepatocytes) | MsH Cmax (mouse hepatocytes; mouse hepatocytes) | MsH AUC (mouse hepatocytes; mouse hepatocytes, 1, 4, 8, 12 and 24 hours) | Ms Plasma 2′-MeG AUC [4] | Ms Plasma 2′-MeG Cmax [4] | Ms Liver 2′-MeGTP AUC [5] | CC50 (in vitro) | Huh-7 TP (24 hr) (Huh-7 cells; 24 hr) | Huh-7 TP (48 hr) (Huh-7 cells; 48 hr) | Huh-7 TP (72 hr) (Huh-7 cells; 72 hr) | Huh-7 TP AUC (Huh-7 cells; Huh-7 cells)
1 | CCOc1nc(N)nc2c1ncn2[C@@H]1O[C@@H]2COP(=O)(OCCSC(=O)C(C)(C)CO)O[C@H]2[C@@]1(C)F (single isomer, unassigned) [Compound 5 Diastereomer 1] | > 6.60 | 108% | 86% | 82% | 99% | 204 pmol/mill cells | 7185 pmol · hr/mill cells | 374 pmol/mill cells | 9866 pmol · hr/mill cells | 97 pmol · hr/mL at 1 μmol/kg | 8.1 pmol/mL at 1 μmol/kg | 1200 pmol · hr/g at 1 μmol/kg | > 50 µM | – | – | – | –
2 | CCOc1nc(N)nc2c1ncn2[C@@H]1O[C@@H]2COP(=O)(OCCSSC(C)(C)C)O[C@H]2[C@@]1(C)F (single isomer, unassigned) [Compound 24 Diastereomer 1] | > 6.60 | 87% | 90% | 91% | – | 154 pmol/mill cells | 3399 pmol · hr/mill cells | – | – | – | – | – | < 50 µM | – | – | – | –
3 | CCOC(=O)CCCOP1(=O)OC[C@H]2O[C@@H](n3cnc4c(OC)nc(N)nc43)[C@](C)(O)[C@@H]2O1 (single isomer, unassigned; diastereomer 1) [Compound 25 Diastereomer 1] | – | – | – | – | – | 1137 pmol/mill cells | 2245 pmol · hr/mill cells | – | – | – | – | – | – | 25 | 28 | 36 | 1697 pmol/mill cells
